Target: hHDAC6 (Homo sapiens (Human), UniProt Q9UBN7)
Assay: HDAC6 inhibition protocol
Details: read-out: IC50 (nM) of enzyme activity HDAC6; hHDAC6 1.20 nM, Acetylated Peptide A 2 μM, 1 hour at RT
Protocol: After enzymatic reactions, reaction was stopped by adding 5 μl of 10 μM solution of a known inhibitor. The fluorescent signal of substrate and product was measured by means of microfluidics mobility assay in a EZ Reader II equipment. The percentage of conversion of substrate into product was calculated by the equipment software based on the area of the peaks.
The percentage of conversion data were analyzed using the computer software, Graphpad Prism. In the absence of the compound, the conversion (Ct) in each data set was defined as 100% activity. In the absence of HDAC, the conversion (Cb) in each data set was defined as 0% activity. The percent activity in the presence of each compound was calculated according to the following equation: % inhibition=(Ct−C)/(Ct−Cb), where C=the percentage of conversion in the presence of the compound.
The values of % inhibition versus a series of compound concentrations were then plotted using non-linear regression analysis of Sigmoidal dose-response curve generated with the equation Y=B+(T−B)/1+10((Log EC50−X)×Hill Slope), where Y=percent inhibition, B=minimum percent inhibition, T=maximum percent inhibition, X=logarithm of compound and Hill Slope=slope factor or Hill coefficient. The IC50 value was determined by the concentration causing a half-maximal percent activity.
The buffer assay used in the inhibition hHDAC6 assay is: Hepes 50 mM, KCl 100 mM, Tween 20 0.001%, BSA 0.01%; pH=7.4.

hHDAC6, sequence (Q9UBN7 whole entry): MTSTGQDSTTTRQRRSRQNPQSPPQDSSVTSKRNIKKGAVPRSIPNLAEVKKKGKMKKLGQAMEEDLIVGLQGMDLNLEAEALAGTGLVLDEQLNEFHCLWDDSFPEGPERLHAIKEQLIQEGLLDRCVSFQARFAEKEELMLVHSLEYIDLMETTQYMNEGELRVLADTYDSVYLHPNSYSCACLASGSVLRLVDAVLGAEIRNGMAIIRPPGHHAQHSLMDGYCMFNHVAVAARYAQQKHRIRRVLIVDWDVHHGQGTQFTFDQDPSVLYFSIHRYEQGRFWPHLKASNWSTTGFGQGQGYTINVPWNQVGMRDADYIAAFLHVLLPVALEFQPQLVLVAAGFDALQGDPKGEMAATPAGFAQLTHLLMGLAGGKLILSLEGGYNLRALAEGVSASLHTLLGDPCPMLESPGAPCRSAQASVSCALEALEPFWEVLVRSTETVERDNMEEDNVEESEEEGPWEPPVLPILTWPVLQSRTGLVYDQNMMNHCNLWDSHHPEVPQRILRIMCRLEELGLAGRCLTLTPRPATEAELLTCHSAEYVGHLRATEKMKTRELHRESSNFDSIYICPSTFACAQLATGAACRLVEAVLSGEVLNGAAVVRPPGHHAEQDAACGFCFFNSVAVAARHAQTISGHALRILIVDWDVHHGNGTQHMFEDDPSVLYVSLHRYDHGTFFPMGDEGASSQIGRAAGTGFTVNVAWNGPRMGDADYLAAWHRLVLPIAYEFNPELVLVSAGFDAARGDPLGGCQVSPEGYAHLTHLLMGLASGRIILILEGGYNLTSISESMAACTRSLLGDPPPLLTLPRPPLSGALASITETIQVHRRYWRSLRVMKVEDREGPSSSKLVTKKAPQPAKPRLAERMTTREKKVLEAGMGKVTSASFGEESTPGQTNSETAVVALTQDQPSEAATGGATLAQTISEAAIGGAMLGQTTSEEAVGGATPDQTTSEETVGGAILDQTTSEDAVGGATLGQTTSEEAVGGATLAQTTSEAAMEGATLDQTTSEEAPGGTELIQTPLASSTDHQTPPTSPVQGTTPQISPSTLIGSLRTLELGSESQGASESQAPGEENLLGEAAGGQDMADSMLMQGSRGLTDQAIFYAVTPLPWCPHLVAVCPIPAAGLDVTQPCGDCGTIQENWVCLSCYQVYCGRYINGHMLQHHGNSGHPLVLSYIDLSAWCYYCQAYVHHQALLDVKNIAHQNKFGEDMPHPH

SMILES | IC50 [nM]
FC(F)c1nnc(-c2ccc(Cn3ccc4ccccc43)cc2)o1 [Example 1, 2-(4-((1H-indol-1-yl)methyl)phenyl)-5-(difluoromethyl)-1,3,4-oxadiazole] | 3040
FC(F)c1nnc(-c2ccc(Cn3ccc4ncccc43)cc2)o1 [Example 2, 2-(4-((1H-pyrrolo[3,2-b]pyridin-1-yl)methyl)phenyl)-5-(difluoromethyl)-1,3,4-oxadiazole] | 1040
FC(F)c1nnc(-c2ccc(Cn3ccc4cnccc43)cc2)o1 [Example 3, 2-(4-((1H-pyrrolo[3,2-c]pyridin-1-yl)methyl)phenyl)-5-(difluoromethyl)-1,3,4-oxadiazole] | 4910
FC(F)c1nnc(-c2ccc(Cn3ccc4cccnc43)cc2)o1 [Example 4, 2-(4-((1H-pyrrolo[2,3-b]pyridin-1-yl)methyl)phenyl)-5-(difluoromethyl)-1,3,4-oxadiazole] | 1760
O=C(c1cn(Cc2ccc(-c3nnc(C(F)F)o3)cc2)c2ccccc12)C(F)F [Example 5, 1-(1-(4-(5-(difluoromethyl)-1,3,4-oxadiazol-2-yl)benzyl)-1H-indol-3-yl)-2,2-difluoroethanone] | 239
FC(F)c1nnc(-c2ccc(Cn3ncc4ccccc43)cc2)o1 [Example 6, 2-(4-((1H-indazol-1-yl)methyl)phenyl)-5-(difluoromethyl)-1,3,4-oxadiazole] | 417
FC(F)c1nnc(-c2ccc(Cn3cnc4ccccc43)cc2)o1 [Example 8, 2-(4-((1H-benzo[d]imidazol-1-yl)methyl)phenyl)-5-(difluoromethyl)-1,3,4-oxadiazole] | 387
O=C(c1nc2cc(Cl)c(Cl)cc2n1Cc1ccc(-c2nnc(C(F)F)o2)cc1)C(F)F [Example 9, 1-(5,6-dichloro-1-(4-(5-(difluoromethyl)-1,3,4-oxadiazol-2-yl)benzyl)-1H-benzo[d]imidazol-2-yl)-2,2-difluoroethanone] | 236
FC(F)c1nnc(-c2ccc(Cn3cnc4cc(Cl)c(Cl)cc43)cc2)o1 [Example 10, 2-(4-((5,6-dichloro-1H-benzo[d]imidazol-1-yl)methyl)phenyl)-5-(difluoromethyl)-1,3,4-oxadiazole] | 60.2
Cc1cccc2nnn(Cc3ccc(-c4nnc(C(F)F)o4)cc3)c12 [Example 12] | 190
FC(F)c1nnc(-c2ccc(Cn3nnc4ccc(Cl)cc43)cc2)o1 [Example 13, 2-(4-((6-chloro-1H-benzo[d][1,2,3]triazol-1-yl)methyl)phenyl)-5-(difluoromethyl)-1,3,4-oxadiazole] | 129
CC1(C)C(=O)N(Cc2ccc(-c3nnc(C(F)F)o3)cc2)c2ccccc21 [Example 15, 1-(4-(5-(difluoromethyl)-1,3,4-oxadiazol-2-yl)benzyl)-3,3-dimethylindolin-2-one] | 214
O=C1c2ccccc2C(=O)N1Cc1ccc(-c2nnc(C(F)F)o2)cc1 [Example 16, 2-(4-(5-(difluoromethyl)-1,3,4-oxadiazol-2-yl)benzyl)isoindoline-1,3-dione] | 258
O=c1n(-c2ccccc2)cnn1Cc1ccc(-c2nnc(C(F)F)o2)cc1 [Example 18, 1-(4-(5-(difluoromethyl)-1,3,4-oxadiazol-2-yl)benzyl)-4-phenyl-1H-1,2,4-triazol-5(4H)-one] | 1160
O=C1N(Cc2ccc(-c3nnc(C(F)F)o3)cc2)c2ccccc2C12CCOCC2 [Example 19] | 229
FC(F)c1nnc(-c2ccc(Cn3nnc4ccccc43)nc2)o1 [Example 21, 2-(6-((1H-benzo[d][1,2,3]triazol-1-yl)methyl)pyridin-3-yl)-5-(difluoromethyl)-1,3,4-oxadiazole] | 103
FC(F)c1nnc(-c2ccc(Cn3nnc4cccnc43)nc2)o1 [Example 23, 2-(6-((3H-[1,2,3]triazolo[4,5-b]pyridin-3-yl)methyl)pyridin-3-yl)-5-(difluoromethyl)-1,3,4-oxadiazole] | 190
COC(=O)c1cn(Cc2ccc(-c3nnc(C(F)F)o3)cc2)nn1 [Example 28, methyl 1-(4-(5-(difluoromethyl)-1,3,4-oxadiazol-2-yl)benzyl)-1H-1,2,3-triazole-4-carboxylate] | 2800
FC(F)c1nnc(-c2ccc(Cn3cc(-c4ccc(C(F)(F)F)cc4)nn3)cc2)o1 [Example 30, 2-(difluoromethyl)-5-(4-((4-(4-(trifluoromethyl)phenyl)-1H-1,2,3-triazol-1-yl)methyl)phenyl)-1,3,4-oxadiazole] | 238
CC(C)(C)c1cn(Cc2ccc(-c3nnc(C(F)F)o3)cc2)nn1 [Example 31, 2-(4-((4-(tert-butyl)-1H-1,2,3-triazol-1-yl)methyl)phenyl)-5-(difluoromethyl)-1,3,4-oxadiazole] | 273
FC(F)c1nnc(-c2ccc(Cn3cc(C4CCCCC4)nn3)cc2)o1 [Example 32, 2-(4-((4-cyclohexyl-1H-1,2,3-triazol-1-yl)methyl)phenyl)-5-(difluoromethyl)-1,3,4-oxadiazole] | 475
FC(F)c1nnc(-c2ccc(Cn3cc(-c4cccs4)nn3)cc2)o1 [Example 36, 2-(difluoromethyl)-5-(4-((4-(thiophen-2-yl)-1H-1,2,3-triazol-1-yl)methyl)phenyl)-1,3,4-oxadiazole] | 105
FC(F)c1nnc(-c2ccc(Cn3cc(-c4ccc(Cl)cc4)nn3)nc2)o1 [Example 43, 2-(6-((4-(4-chlorophenyl)-1H-1,2,3-triazol-1-yl)methyl)pyridin-3-yl)-5-(difluoromethyl)-1,3,4-oxadiazole] | 43.1
FC(F)c1nnc(-c2ccc(Cn3cc(-c4ccccc4Cl)nn3)nc2)o1 [Example 44, 2-(6-((4-(2-chlorophenyl)-1H-1,2,3-triazol-1-yl)methyl)pyridin-3-yl)-5-(difluoromethyl)-1,3,4-oxadiazole] | 37.1
FC(F)c1nnc(-c2ccc(Cn3cc(-c4cccc(Cl)c4)nn3)nc2)o1 [Example 45, 2-(6-((4-(3-chlorophenyl)-1H-1,2,3-triazol-1-yl)methyl)pyridin-3-yl)-5-(difluoromethyl)-1,3,4-oxadiazole] | 33.5
FC(F)c1nnc(-c2ccc(Cn3cc(-c4ccc(Cl)c(Cl)c4)nn3)nc2)o1 [Example 46, 2-(6-((4-(3,4-dichlorophenyl)-1H-1,2,3-triazol-1-yl)methyl)pyridin-3-yl)-5-(difluoromethyl)-1,3,4-oxadiazole] | 37.9
FC(F)c1nnc(-c2ccc(Cn3cc(-c4cc(Cl)cc(Cl)c4)nn3)nc2)o1 [Example 47, 2-(6-((4-(3,5-dichlorophenyl)-1H-1,2,3-triazol-1-yl)methyl)pyridin-3-yl)-5-(difluoromethyl)-1,3,4-oxadiazole] | 25.7
Fc1cccc(F)c1-c1cn(Cc2ccc(-c3nnc(C(F)F)o3)cn2)nn1 [Example 49, 2-(difluoromethyl)-5-(6-((4-(2,6-difluorophenyl)-1H-1,2,3-triazol-1-yl)methyl)pyridin-3-yl)-1,3,4-oxadiazole] | 66.7

Further lines, results first:

IC50 [nM] | SMILES
920 | FC(F)c1nnc(-c2ccc(Cn3nnnc3-c3ccccc3)cc2)o1 [Example 17, 2-(difluoromethyl)-5-(4-((5-phenyl-1H-tetrazol-1-yl)methyl)phenyl)-1,3,4-oxadiazole]
589 | CC(c1ccc(-c2nnc(C(F)F)o2)cc1)n1cnc2ccccc21 (centres unmarked) [Example 20, 2-(4-(1-(1H-benzo[d]imidazol-1-yl)ethyl)phenyl)-5-(difluoromethyl)-1,3,4-oxadiazole]
48.3 | FC(F)c1nnc(-c2ccc(Cn3cnc(-c4ccccc4)c3)nc2)o1 [Example 26, 2-(difluoromethyl)-5-(6-((4-phenyl-1H-imidazol-1-yl)methyl)pyridin-3-yl)-1,3,4-oxadiazole]
95.6 | FC(F)c1nnc(-c2ccc(Cn3cc(-c4ccc(Cl)cc4)nn3)cc2)o1 [Example 29, 2-(4-((4-(4-chlorophenyl)-1H-1,2,3-triazol-1-yl)methyl)phenyl)-5-(difluoromethyl)-1,3,4-oxadiazole]
188 | FC(F)c1nnc(-c2ccc(Cn3cc(-c4ccncc4)nn3)cc2)o1 [Example 33, 2-(difluoromethyl)-5-(4-((4-(pyridin-4-yl)-1H-1,2,3-triazol-1-yl)methyl)phenyl)-1,3,4-oxadiazole]
202 | FC(F)c1nnc(-c2ccc(Cn3cc(-c4cccnc4)nn3)cc2)o1 [Example 34, 2-(difluoromethyl)-5-(4-((4-(pyridin-3-yl)-1H-1,2,3-triazol-1-yl)methyl)phenyl)-1,3,4-oxadiazole]
131 | FC(F)c1nnc(-c2ccc(Cn3cc(-c4ccsc4)nn3)cc2)o1 [Example 35, 2-(difluoromethyl)-5-(4-((4-(thiophen-3-yl)-1H-1,2,3-triazol-1-yl)methyl)phenyl)-1,3,4-oxadiazole]
149 | CC(c1ccc(-c2nnc(C(F)F)o2)cc1)n1cc(-c2ccccc2)nn1 (centres unmarked) [Example 37, 2-(difluoromethyl)-5-(4-(1-(4-phenyl-1H-1,2,3-triazol-1-yl)ethyl)phenyl)-1,3,4-oxadiazole]
266 | FC(F)c1nnc(-c2ccc(Cn3nnc(-c4ccccc4)c3-c3ccccc3)cc2)o1 [Example 38, 2-(difluoromethyl)-5-(4-((4,5-diphenyl-1H-1,2,3-triazol-1-yl)methyl)phenyl)-1,3,4-oxadiazole]
366 | Cc1c(-c2ccccc2)nnn1Cc1ccc(-c2nnc(C(F)F)o2)cc1 [Example 39, 2-(difluoromethyl)-5-(4-((5-methyl-4-phenyl-1H-1,2,3-triazol-1-yl)methyl)phenyl)-1,3,4-oxadiazole]
686 | Cc1nnn(Cc2ccc(-c3nnc(C(F)F)o3)cc2)c1-c1ccccc1 [Example 40, 2-(difluoromethyl)-5-(4-((4-methyl-5-phenyl-1H-1,2,3-triazol-1-yl)methyl)phenyl)-1,3,4-oxadiazole]
40.9 | FC(F)c1nnc(-c2ccc(Cn3cc(-c4ccccc4)nn3)nc2)o1 [Example 41, 2-(difluoromethyl)-5-(6-((4-phenyl-1H-1,2,3-triazol-1-yl)methyl)pyridin-3-yl)-1,3,4-oxadiazole]
1990 | FC(F)c1nnc(-c2ccc(Cn3cc(-c4ccccc4)nn3)cn2)o1 [Example 42, 2-(difluoromethyl)-5-(5-((4-phenyl-1H-1,2,3-triazol-1-yl)methyl)pyridin-2-yl)-1,3,4-oxadiazole]

— US12202823B2 (QUIMATRYX, S.L., priority 2019, dated 2025)
